Measured values taken from ChEMBL document CHEMBL1156072, “Twenty-six years of anti-HIV drug discovery: where do we stand and where do we go?” (J Med Chem, 2010).

Tests used:
[1] = Oral bioavailability in dog; format: ADME, organism-based, Canis lupus familiaris; conditions: in vivo
[2] = Oral bioavailability in rat; format: ADME, organism-based; conditions: in vivo

## COc1cc2c(cc1Cc1cccc(Cl)c1F)c(=O)c(C(=O)O)cn2[C@H](CO)C(C)C [ELVITEGRAVIR]
[1]
  bioavailability: 30%
[2]
  bioavailability: 34%
